Results from patent US8431563B2 (priority 2010, dated 2013).
Where two headings read alike, the source gives them in different places.

Legend:
[1] = molecular target: T1, GKRP (Glucokinase Regulatory Protein) with human His-hepatic GK (Homo sapiens, UniProt Q14397); assay: biochemical
T1 sequence (Q14397 1-625): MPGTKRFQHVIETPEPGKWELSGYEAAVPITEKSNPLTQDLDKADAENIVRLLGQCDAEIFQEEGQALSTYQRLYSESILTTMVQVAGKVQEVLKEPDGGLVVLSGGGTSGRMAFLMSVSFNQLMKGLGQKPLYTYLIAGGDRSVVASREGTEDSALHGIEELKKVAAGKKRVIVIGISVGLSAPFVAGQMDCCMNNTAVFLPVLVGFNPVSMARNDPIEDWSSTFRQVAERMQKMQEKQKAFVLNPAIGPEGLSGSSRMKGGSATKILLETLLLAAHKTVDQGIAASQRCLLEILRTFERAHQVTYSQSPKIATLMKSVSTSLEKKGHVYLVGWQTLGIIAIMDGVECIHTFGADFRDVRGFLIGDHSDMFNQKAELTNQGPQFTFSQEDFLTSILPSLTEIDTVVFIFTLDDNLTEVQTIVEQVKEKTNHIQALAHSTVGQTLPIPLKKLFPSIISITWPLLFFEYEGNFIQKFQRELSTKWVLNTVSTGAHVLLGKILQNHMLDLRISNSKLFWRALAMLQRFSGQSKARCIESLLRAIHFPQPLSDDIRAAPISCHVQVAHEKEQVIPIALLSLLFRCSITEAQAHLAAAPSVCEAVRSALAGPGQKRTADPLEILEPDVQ
In short: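 Product formation, 13C-glucose-6-phosphate from 13C-glucose, was measured directly by LC MS/MS after acetonitrile quench. The GK reaction ran 30 min at room temperature in Tris pH 7.5 buffer with 4 mM MgCl2 and 6% DMSO. The 5× enzyme stock was 30 nM His-tagged human hepatic glucokinase.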

[2] = molecular target: T2, interaction between glucokinase (GK) and glucokinase regulatory protein (GKRP) (Homo sapiens, UniProt Q14397); assay: biochemical; type: binding
T2 sequence (Q14397 1-625): T1 sequence (Q14397 1-625)
In short: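 Measures direct GK–GKRP binding in 20 mM Tris pH 7.5 containing 1 μM sorbitol-6-phosphate, 0.05% BSA and 1 mM DTT. Compound and avi-tagged GKRP sit 20 min at room temperature before GK-fluorescein addition (6 nM in the added buffer); read after 2 h dark incubation at room temperature.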

[3] = 13C-glucose-6-phosphate formation, 280 nM GKRP (10×), 30 nM GK (5×), read-out: GK-GKRP EC50 (LC MS/MS-2)
[4] = avi-tagged GKRP, GK-fluorescein, AlphaScreen beads, read-out: GK-GKRP IC50 (Binding)
[5] = read-out: GK-GKRP EC50 (LC MS/MS-2)
[6] = read-out: GK-GKRP IC50 (Binding)

CCC(C#Cc1cc(C(O)(C(F)(F)F)C(F)(F)F)ccc1N1CCC(S(=O)(=O)c2ccccc2)CC1)OC (racemic) [Example 163, 1,1,1,3,3,3-hexafluoro-2-(3-(3-methoxypent-1-ynyl)-4-(4-(phenylsulfonyl)piperidin-1-yl)phenyl)-2-propanol]
EC50 [1, 3]: 807 nM
IC50 [2, 4]: 602 nM

C[C@H]1CN(S(=O)(=O)c2cccs2)CCN1c1ncc(C(O)(C(F)(F)F)C(F)(F)F)cn1 [Example 94, 1,1,1,3,3,3-hexafluoro-2-(2-((2S)-2-methyl-4-(2-thiophenylsulfonyl)-1-piperazinyl)-5-pyrimidinyl)-2-propanol]
EC50 [1, 3]: 470 nM
IC50 [2, 4]: 362 nM

CC(O)(c1ccc(N2CCN(S(=O)(=O)c3cccs3)C[C@@H]2CSc2ccccc2)cc1)C(F)(F)F (mixture of isomers) [Example 186, 1,1,1-trifluoro-2-(4-((2R)-2-((phenylsulfanyl)methyl)-4-(2-thiophenylsulfonyl)-1-piperazinyl)phenyl)-2-propanol]
EC50 [1, 5]: 24 nM
IC50 [2, 6]: 14 nM

COc1ccccc1CC1CN(S(=O)(=O)c2cccs2)CCN1c1ccc(C(O)(C(F)(F)F)C(F)(F)F)cc1 (racemic) [Example 174, 1,1,1,3,3,3-hexafluoro-2-(4-(2-(2-methoxybenzyl)-4-(thiophen-2-ylsulfonyl)piperazin-1-yl)phenyl)-2-propanol]
EC50 [1, 3]: 114 nM
IC50 [2, 4]: 167 nM

CN(C[C@H]1CN(S(=O)(=O)c2cccs2)CCN1c1ccc(C(C)(O)C(F)(F)F)cc1)S(=O)(=O)c1cccnc1 (mixture of isomers) [Example 217, N-methyl-N-(((2S)-4-(2-thiophenylsulfonyl)-1-(4-(2,2,2-trifluoro-1-hydroxy-1-methylethyl)phenyl)-2-piperazinyl)methyl)-3-pyridinesulfonamide]
EC50 [1, 3]: 752 nM
IC50 [2, 4]: 407 nM

CC1(C)C(=O)NCCN1C[C@H]1CN(S(=O)(=O)c2ccc(N)s2)CCN1c1ncc(C(O)(C(F)(F)F)C(F)(F)F)cn1 [Example 227, (S)-4-((4-((5-aminothiophen-2-yl)sulfonyl)-1-(5-(1,1,1,3,3,3-hexafluoro-2-hydroxypropan-2-yl)pyrimidin-2-yl)piperazin-2-yl)methyl)-3,3-dimethylpiperazin-2-one]
EC50 [1, 3]: 21 nM
IC50 [2, 4]: 2 nM

CS(=O)(=O)NCC#Cc1cc(C(O)(C(F)(F)F)C(F)(F)F)ccc1N1CCN(S(=O)(=O)c2cccs2)CC1 [Example 160, N-(3-(2-(4-(2-thiophenylsulfonyl)-1-piperazinyl)-5-(2,2,2-trifluoro-1-hydroxy-1-(trifluoromethyl)ethyl)phenyl)-2-propyn-1-yl)methanesulfonamide]
EC50 [1, 3]: 412 nM
IC50 [2, 4]: 783 nM

Nc1ccc(S(=O)(=O)N2CCN(c3ncc(C(O)(C(F)(F)F)C(F)(F)F)cn3)[C@@H](CN3C4COCC3CC(O)C4)C2)s1 (stereo partly drawn) [Example 98 nonan-7-ol (endo), 9-(((2S)-4-((5-amino-2-thiophenyl)sulfonyl)-1-(5-(2,2,2-trifluoro-1-hydroxy-1-(trifluoromethyl)ethyl)-2-pyrimidinyl)-2-piperazinyl)methyl)-3-oxa-9-azabicyclo[3.3.1]nonan-7-ol (endo)]
EC50 [1, 3]: 19 nM
IC50 [2, 4]: 2 nM

C[C@H]1CN(S(=O)(=O)c2ccccc2N)CCN1c1ncc(C(O)(C(F)(F)F)C(F)(F)F)cn1 [Example 167, (S)-2-(2-(4-(2-aminophenylsulfonyl)-2-methylpiperazin-1-yl)pyrimidin-5-yl)-1,1,1,3,3,3-hexafluoro-2-propanol]
EC50 [1, 3]: 516 nM
IC50 [2, 4]: 508 nM

CC(O)(c1ccc(N2CCN(S(=O)(=O)c3cccs3)C[C@@H]2CN2C3COCC2C(O)C3)cc1)C(F)(F)F (single isomer, unassigned) [Example 78 Peak #2]
EC50 [1, 3]: 60 nM
IC50 [2, 4]: 49 nM

CC(O)(c1ccc(N2CCN(S(=O)(=O)c3cccs3)C[C@@H]2CSc2ccc(F)cc2)cc1)C(F)(F)F (mixture of isomers) [Example 190, 1,1,1-trifluoro-2-(4-((2R)-2-(((4-fluorophenyl)sulfanyl)methyl)-4-(2-thiophenylsulfonyl)-1-piperazinyl)phenyl)-2-propanol]
EC50 [1, 3]: 15 nM
IC50 [2, 4]: 30 nM

CC(O)(c1ccc(N2CCN(S(=O)(=O)c3cccs3)C[C@@H]2CS(=O)(=O)c2ccc(F)cc2)cc1)C(F)(F)F (mixture of isomers) [Example 191 Peak#1, 1,1,1-trifluoro-2-(4-((2R)-2-(((4-fluorophenyl)sulfonyl)methyl)-4-(2-thiophenylsulfonyl)-1-piperazinyl)phenyl)-2-propanol]
EC50 [1, 3]: 166 nM
IC50 [2, 4]: 177 nM

Cn1cnc(COC[C@H]2CN(S(=O)(=O)c3cccs3)CCN2c2ccc(C(C)(O)C(F)(F)F)cc2)c1 (single isomer, unassigned) [Example 119 Peak #1]
EC50 [1, 3]: 235 nM
IC50 [2, 4]: 972 nM

CC(O)(c1ccc(N2CCN(S(=O)(=O)c3cccs3)C[C@@H]2CN2C3COCC2C(O)C3)cc1)C(F)(F)F (single isomer, unassigned; peak #1) [Example 77 Peak #1]
EC50 [1, 3]: 38 nM
IC50 [2, 4]: 13 nM

O=S(=O)(c1cccs1)N1CCN(c2ncc(C(O)(C(F)(F)F)C(F)(F)F)cn2)[C@@H](CN2C3COCC2C(O)C3)C1 (stereo partly drawn) [Example 79, 8-(((2S)-4-(2-thiophenylsulfonyl)-1-(5-(2,2,2-trifluoro-1-hydroxy-1-(trifluoromethyl)ethyl)-2-pyrimidinyl)-2-piperazinyl)methyl)-3-oxa-8-azabicyclo[3.2.1]octan-6-ol]
EC50 [1, 3]: 58 nM
IC50 [2, 4]: 39 nM

Nc1ccc(S(=O)(=O)N2CCN(c3ncc(C(O)(C(F)(F)F)C(F)(F)F)cn3)[C@@H](CN3C4COCC3CC(O)C4)C2)cn1 (stereo partly drawn) [Example 99 nonan-7-ol (endo), 9-(((2S)-4-((6-amino-3-pyridinyl)sulfonyl)-1-(5-(2,2,2-trifluoro-1-hydroxy-1-(trifluoromethyl)ethyl)-2-pyrimidinyl)-2-piperazinyl)methyl)-3-oxa-9-azabicyclo[3.3.1]nonan-7-ol (endo)]
EC50 [1, 3]: 25 nM
IC50 [2, 4]: 3 nM

C[C@H]1CN(S(=O)(=O)c2ccc(N)s2)CCN1c1ccc(C(C)(O)C(F)(F)F)cc1 (mixture of isomers) [Example 139, 2-(4-((2S)-4-((5-amino-2-thiophenyl)sulfonyl)-2-methyl-1-piperazinyl)phenyl)-1,1,1-trifluoro-2-propanol]
EC50 [1, 3]: 370 nM
IC50 [2, 4]: 630 nM

Nc1ccc(S(=O)(=O)N2CCN(c3ncc(C(O)(C(F)(F)F)C(F)(F)F)cn3)[C@@H](CN3C4COCC3CC(=O)C4)C2)s1 [Example 98 nonan-7-one, 9-(((2S)-4-((5-amino-2-thiophenyl)sulfonyl)-1-(5-(2,2,2-trifluoro-1-hydroxy-1-(trifluoromethyl)ethyl)-2-pyrimidinyl)-2-piperazinyl)methyl)-3-oxa-9-azabicyclo[3.3.1]nonan-7-one]
EC50 ([1]; GK-GKRP EC50 (LC MS/MS-2), 13C-glucose-6-phosphate formation, 280 nM GKRP (10×), 30 nM GK (5×)): 40 nM
IC50 ([2]; GK-GKRP IC50 (Binding), avi-tagged GKRP, GK-fluorescein, AlphaScreen beads): 16 nM

CC(O)C#Cc1cc(C(O)(C(F)(F)F)C(F)(F)F)ccc1N1CCN(S(=O)(=O)c2cccs2)CC1 (racemic) [Example 151, 4-(2-(4-(2-thiophenylsulfonyl)-1-piperazinyl)-5-(2,2,2-trifluoro-1-hydroxy-1-(trifluoromethyl)ethyl)phenyl)-3-butyn-2-ol]
EC50 [1, 3]: 994 nM
IC50 [2, 4]: 396 nM

CC(O)(c1ccc(N2CCN(S(=O)(=O)c3cccs3)C[C@@H]2CN(Cc2ccccc2)S(C)(=O)=O)cc1)C(F)(F)F (mixture of isomers) [Example 220, N-benzyl-N-(((2S)-4-(2-thiophenylsulfonyl)-1-(4-(2,2,2-trifluoro-1-hydroxy-1-methylethyl)phenyl)-2-piperazinyl)methyl)methanesulfonamide]
EC50 [1, 3]: 15 nM
IC50 [2, 4]: 3 nM

CC(O)(c1ccc(N2CCN(S(=O)(=O)c3cccs3)CC2CN2C3COCC2C(O)C3)cc1)C(F)(F)F (single isomer, unassigned) [Example 77 Peak #3]
EC50 [1, 3]: 58 nM
IC50 [2, 4]: 29 nM

CC(O)(c1ccc(N2CCN(S(=O)(=O)c3cccs3)C[C@@H]2CN2CCOC[C@@H]2CO)cc1)C(F)(F)F (single isomer, unassigned) [Example 111 Peak #2]
EC50 [1, 5]: 113 nM
IC50 [2, 6]: 67 nM
